Patent US20250136722A1, “CYTOTOXICITY TARGETING CHIMERAS” (GLAXOSMITHKLINE INTELLECTUAL PROPERTY DEVELOPMENT LIMITED, priority 2021, published 2025)
“And” between values parts separate entries of the source, which are not always exact repeats. Identical values can stand only once.

What was measured:
[1] = target: T1, CHOK1 cells engineered to overexpress human CCR2 (Homo sapiens, UniProt P41597); test: Antibody dependent cellular cytotoxicity (ADCC) reporter assay (Example 199); assay type: cell-based; details: with anti-cotinine antibody SEQ ID NO: 11/12; CHOK1-human CCR2 target cells, Jurkat FcγRIIIa NFAT-luciferase reporter cells; 12-18 hours; read-out: ADCC Reporter Assay pEC50 (converted)
T1 construct: expressed in transfected cells; host or cells: CHOK1 cells
Procedure, shortened: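 Potency is reported as pEC50 from a nonlinear fit, averaged over runs, using luciferase signal divided by that of compound-free wells. The readout comes from NFAT-luciferase Jurkat cells expressing FcγRIIIa, mixed for 12–18 h with human CCR2-overexpressing CHOK1 cells, 1 pM–10 μM ARM compound and 0.01–200 μg/mL Fc-enhanced anti-cotinine IgG1.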

[2] = target: Anti-cotinine antibody (SEQ ID NO: 11 / SEQ ID NO: 12, rabbit variable region with human IgG1 Fc domain); test: Binding of anti-cotinine antibody to ARM compounds by SPR, Biacore T200, 37° C. (Example 202); details: pH 7.4, rabbit variable region/human IgG1 Fc antibody captured on protein A
Procedure, shortened: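 Run at 37° C. in 10 mM HEPES pH 7.4, 150 mM NaCl, 0.005% P20, 1% DMSO. Compound titrated from 200 nM (five 3-fold steps) over protein A-captured antibody, with 200/2000 s association/dissociation. 1:1 kinetic fit gave kon, koff, Kd and residence time (1/koff); pKd averaged where runs repeated.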

CC(C)N(C)[C@@H]1CC[C@H](N2CC[C@H](Nc3ncnc4ccc(C(F)(F)F)cc34)C2=O)[C@H](NC(=O)COCCOCCNC(=O)COCCNC(=O)CCNC(=O)[C@H]2CC(=O)N(C)[C@@H]2c2cccnc2)C1 [Example 74, (2S,3S)-N-(1-(((1R,2S,5R)-5-(isopropyl(methyl)amino)-2-((S)-2-oxo-3-((6-(trifluoromethyl)quinazolin-4-yl)amino)pyrrolidin-1-yl)cyclohexyl)amino)-1,10,16-trioxo-3,6,12-trioxa-9,15-diazaoctadecan-18-yl)-1-methyl-5-oxo-2-(pyridin-3-yl)pyrrolidine-3-carboxamide]
EC50 [1]: 9.64 nM
pKd of Antibody for ARM Compound of Formula (I) [2]: 9.091

CC(C)N(C)[C@@H]1CC[C@H](N2CC[C@H](Nc3ncnc4ccc(C(F)(F)F)cc34)C2=O)[C@H](NC(=O)CCOCCOCCNC(=O)COCCNC(=O)CCNC(=O)[C@H]2CC(=O)N(C)[C@@H]2c2cccnc2)C1 [Example 75]
EC50 [1]: 1.63 nM
pKd of Antibody for ARM Compound of Formula (I) [2]: 9.103

CC(C)N(C)[C@@H]1CC[C@H](N2CC[C@H](Nc3ncnc4ccc(C(F)(F)F)cc34)C2=O)[C@H](NC(=O)C2CCN(C3CCN(C(=O)CCCCCCCCCNC(=O)[C@@H]4CC(=O)N(C)[C@H]4c4cccnc4)CC3)CC2)C1 [Example 157]
EC50 [1]: 0.2 nM
pKd of Antibody for ARM Compound of Formula (I) [2]: 10.135

CC(C)N(C)[C@@H]1CC[C@H](N2CC[C@H](Nc3ncnc4ccc(C(F)(F)F)cc34)C2=O)[C@H](NC(=O)C2CCN(C(=O)CCOCCOCCOCCNC(=O)[C@H]3CC(=O)N(C)[C@@H]3c3cccnc3)CC2)C1 [Example 29]
EC50 [1]: 12.6 nM
pKd of Antibody for ARM Compound of Formula (I) [2]: 9.3345

CC(C)N(C)[C@@H]1CC[C@H](N2CC[C@H](Nc3ncnc4ccc(C(F)(F)F)cc34)C2=O)[C@H](NC(=O)[C@H]2C[C@@H](NC(=O)CCO[C@H]3CC[C@H](OCCNC(=O)[C@H]4CC(=O)N(C)[C@@H]4c4cccnc4)CC3)C2)C1 [Example 115]
EC50 [1]: 0.408 nM and 0.305 nM
pKd of Antibody for ARM Compound of Formula (I) [2]: 9.363

CC(C)N(C)[C@@H]1CC[C@H](N2CC[C@H](Nc3ncnc4ccc(C(F)(F)F)cc34)C2=O)[C@H](NC(=O)[C@H]2CC[C@H](NC(=O)CCCO[C@H]3CC[C@@H](OCCNC(=O)[C@H]4CC(=O)N(C)[C@@H]4c4cccnc4)CC3)CC2)C1 [Example 4]
EC50 [1]: 6.3 nM and 2.79 nM and 4.89 nM
pKd of Antibody for ARM Compound of Formula (I) [2]: 9.526

CC(C)N(C)[C@@H]1CC[C@H](N2CC[C@H](Nc3ncnc4ccc(C(F)(F)F)cc34)C2=O)[C@H](NC(=O)[C@H]2CC[C@H](CNC(=O)CCOCCOCCOCCNC(=O)[C@H]3CC(=O)N(C)[C@@H]3c3cccnc3)CC2)C1 [Example 32]
EC50 [1]: 1.07 nM and 0.593 nM
pKd of Antibody for ARM Compound of Formula (I) [2]: 9.1825

CN1C(=O)C[C@H](C(=O)NCCOCCOCCOCCC(=O)N[C@H]2CC[C@H](C(=O)N[C@@H]3C[C@H](NC(C)(C)C)CC[C@@H]3N3CC[C@H](Nc4ncnc5ccc(C(F)(F)F)cc45)C3=O)CC2)[C@H]1c1cccnc1 [Example 31]
EC50 [1]: 7.94 nM
pKd of Antibody for ARM Compound of Formula (I) [2]: 9.3015

CC(C)N(C)[C@@H]1CC[C@H](N2CC[C@H](Nc3ncnc4ccc(C(F)(F)F)cc34)C2=O)[C@H](Nc2c(NCCOCCOCCOCCOCCOCCNC(=O)[C@H]3CC(=O)N(C)[C@@H]3c3cccnc3)c(=O)c2=O)C1 [Example 85, (2S,3S)-N-(17-((2-(((1R,2S,5R)-5-(Isopropyl(methyl)amino)-2-((S)-2-oxo-3-((6-(trifluoromethyl)quinazolin-4-yl)amino)pyrrolidin-1-yl)cyclohexyl)amino)-3,4-dioxocyclobut-1-en-1-yl)amino)-3,6,9,12,15-pentaoxaheptadecyl)-1-methyl-5-oxo-2-(pyridin-3-yl)pyrrolidine-3-carboxamide]
EC50 [1]: 8.24 nM
pKd of Antibody for ARM Compound of Formula (I) [2]: 9.6885

CC(C)N(C)[C@@H]1CC[C@H](N2CC[C@H](Nc3ncnc4ccc(C(F)(F)F)cc34)C2=O)[C@H](NC(=O)[C@H]2C[C@@H](NC(=O)CCOCCOCCNC(=O)CNC(=O)[C@H]3CC(=O)N(C)[C@@H]3c3cccnc3)C2)C1 [Example 66]
EC50 [1]: 0.431 nM
pKd of Antibody for ARM Compound of Formula (I) [2]: 8.649

CC(C)N(C)[C@@H]1CC[C@H](N2CC[C@H](Nc3ncnc4ccc(C(F)(F)F)cc34)C2=O)[C@H](NC(=O)[C@H]2CC[C@@H](NC(=O)CCO[C@H]3CC[C@H](OCCNC(=O)[C@H]4CC(=O)N(C)[C@@H]4c4cccnc4)CC3)CC2)C1 [Example 112, (2S,3S)-N-(2-(((1S,4S)-4-(3-(((1S,4S)-4-(((1R,2S,5R)-5-(Isopropyl(methyl)amino)-2-((S)-2-oxo-3-((6-(trifluoromethyl)quinazolin-4-yl)amino)pyrrolidin-1-yl)cyclohexyl)carbamoyl)cyclohexyl)amino)-3-oxopropoxy)cyclohexyl)oxy)ethyl)-1-methyl-5-oxo-2-(pyridin-3-yl)pyrrolidine-3-carboxamide]
EC50 [1]: 0.398 nM
pKd of Antibody for ARM Compound of Formula (I) [2]: 9.343

CC(C)N(C)[C@@H]1CC[C@H](N2CC[C@H](Nc3ncnc4ccc(C(F)(F)F)cc34)C2=O)[C@H](NC(=O)COCCNC(=O)[C@H]2CC[C@@H](NC(=O)CCOCCNC(=O)[C@H]3CC(=O)N(C)[C@@H]3c3cccnc3)CC2)C1 [Example 109]
EC50 [1]: 0.17 nM
pKd of Antibody for ARM Compound of Formula (I) [2]: 8.951

CC(C)N(C)[C@@H]1CC[C@H](N2CC[C@H](Nc3ncnc4ccc(C(F)(F)F)cc34)C2=O)[C@H](NC(=O)COCCNC(=O)CCNC(=O)CCOCCOCCNC(=O)[C@H]2CC(=O)N(C)[C@@H]2c2cccnc2)C1 [Example 181, (2S,3S)-N-(1-(((1R,2S,5R)-5-(Isopropyl(methyl)amino)-2-((S)-2-oxo-3-((6-(trifluoromethyl)quinazolin-4-yl)amino)pyrrolidin-1-yl)cyclohexyl)amino)-1,7,11-trioxo-3,14,17-trioxa-6,10-diazanonadecan-19-yl)-1-methyl-5-oxo-2-(pyridin-3-yl)pyrrolidine-3-carboxamide]
EC50 [1]: 0.675 nM
pKd of Antibody for ARM Compound of Formula (I) [2]: 9.1645

CC(C)N(C)[C@@H]1CC[C@H](N2CC[C@H](Nc3ncnc4ccc(C(F)(F)F)cc34)C2=O)[C@H](NC(=O)CCOCCOCCOCCNc2c(NCCNC(=O)[C@H]3CC(=O)N(C)[C@@H]3c3cccnc3)c(=O)c2=O)C1 [Example 168, (2S,3S)-N-(2-((2-((2-(2-(2-(3-(((1R,2S,5R)-5-(Isopropyl(methyl)amino)-2-((S)-2-oxo-3-((6-(trifluoromethyl)quinazolin-4-yl)amino)pyrrolidin-1-yl)cyclohexyl)amino)-3-oxopropoxy)ethoxy)ethoxy)ethyl)amino)-3,4-dioxocyclobut-1-en-1-yl)amino)ethyl)-1-methyl-5-oxo-2-(pyridin-3-yl)pyrrolidine-3-carboxamide]
EC50 [1]: 0.793 nM
pKd of Antibody for ARM Compound of Formula (I) [2]: 9.06

CC(C)N(C)[C@@H]1CC[C@H](N2CC[C@H](Nc3ncnc4ccc(C(F)(F)F)cc34)C2=O)[C@H](NC(=O)COCCNC(=O)CCOCCNC(=O)CCOCCNC(=O)[C@H]2CC(=O)N(C)[C@@H]2c2cccnc2)C1 [Example 47]
EC50 [1]: 2.84 nM
pKd of Antibody for ARM Compound of Formula (I) [2]: 9.051
